Data on eleven compounds can be found in ChEMBL document CHEMBL1201862, “PubChem BioAssay data set” (2004).

What all share (test): NCI tumour cell line growth inhibition, 48 h
The test system of test [1] is Malme-3M.
Test [2] relates to SW-620.
Test [3] concerns NCI/ADR-RES.
Test [4] concerns BT-549.
In test [5] the test system is MOLT-4.
Test [6] has as its system SF-268.
For test [7], the system named is SK-OV-3.
The subject of test [8] is SF-295.
The test system of test [9] is UACC-62.
The test system of test [10] is NCI-H226.
Test [11] has as its system SK-MEL-28.
The subject of test [12] is EKVX.
Test [13] relates to T47D.
The test system of test [14] is OVCAR-4.
Test [15] deals with MDA-MB-231.
Test [16] deals with DU-145.
In test [17] the test system is HCT-116.
For test [18], the system named is OVCAR-8.
The subject of test [19] is HT-29.
Test [20] concerns SNB-75.

Molecules are shown by their SMILES.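 In this assay, cells in 96-well plates receive the compound at five concentrations for 48 hours. Endpoints are linearly interpolated between the surrounding concentrations. The concentration for 50% growth inhibition is given as GI50.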 Active and inactive are the calls of the source. No stated cut-off is given here; in the data, active = GI50 up to about 1.1 µM and inactive = higher. Bounds are passed on as bounds.

On to `CC[C@@]1(CCC(=O)NCCc2c[nH]c3ccccc23)CCC(=O)N2CCc3c([nH]c4ccccc34)[C@H]21`, for which the GI50 in [1] was 5.35 µM (inactive); in test [2] it was 25.8 µM (inactive); in [3] it was 4.57 µM (inactive); in [4], 4.31 µM (inactive); in test [5], 3.71 µM (inactive); in [6], 5.64 µM (inactive). For the same compound, the GI50 in [7] was 36.2 µM (inactive); in [8] it was 5.13 µM (inactive); in [9], 17.1 µM (inactive); in test [10] it was 20 µM (inactive); in test [11], 39.4 µM (inactive); in [12], 12.2 µM (inactive). The GI50 in [13] is 28.7 µM (inactive); in test [14], 12.9 µM (inactive); in [15], 40.7 µM (inactive); in test [16] it was 29 µM (inactive); in test [17] it was 11.8 µM (inactive).

As to `O[C@@H]1[C@H](OC2c3ccccc3-c3ccccc32)[C@H](OCc2ccccc2)[C@@H]2OC[C@H]1O2`, the GI50 in [1] was > 100 µM (inactive); in test [2], > 100 µM (inactive); in test [3], > 100 µM (inactive); in test [4], > 100 µM (inactive); in test [5], 34.1 µM (inactive); in test [6] it was 57.1 µM (inactive). Moreover, the GI50 is 39.6 µM (inactive) in test [18]; > 100 µM (inactive) in [19]; > 100 µM (inactive) in test [8]; > 100 µM (inactive) in test [9]; > 100 µM (inactive) in test [10]; > 100 µM (inactive) in [11]. Also, the GI50 in [12] is > 100 µM (inactive); in [13] it was > 100 µM (inactive); in test [14] it was 91 µM (inactive); in [15], 51.3 µM (inactive); in [16], > 100 µM (inactive); in test [17], 41.5 µM (inactive).

As to `COc1ccc(C2C3CCc4ccccc4C3=NN2S(=O)(=O)c2ccc(/C=C/C(=O)O)cc2)cc1` (stereo unspecified), the GI50 in test [1] is 2.77 µM (inactive); in test [2] it was 3.18 µM (inactive); in test [3], 1.75 µM (inactive); in [4], 10.4 µM (inactive); in test [5], 3.61 µM (inactive); in [6], 5.35 µM (inactive). Further, the GI50 in test [18] is 11 µM (inactive); in test [7] it was 1.55 µM (inactive); in test [19] it was 3.33 µM (inactive); in [8] it was 2.93 µM (inactive); in test [9], 2.82 µM (inactive); in test [10], 5.98 µM (inactive). Further, the GI50 in [12] was 8.99 µM (inactive); in test [13], 7.06 µM (inactive); in test [14], 7.23 µM (inactive); in test [15], 4.84 µM (inactive); in test [16], 22.1 µM (inactive); in [17] it was 3.53 µM (inactive).

For `CC(=O)O[C@H]1CC[C@@]2(C)C(=CC[C@@H]3[C@@H]2CC[C@]2(C)c4c(C)nn(-c5ccccc5)c4C[C@@H]32)C1`, the GI50 is 33.5 µM (inactive) in test [2]; 34.9 µM (inactive) in test [3]; 9.95 µM (inactive) in test [4]; 13.2 µM (inactive) in [5]; 62.8 µM (inactive) in test [6]; 40.7 µM (inactive) in [18]. Also, the GI50 in test [7] was 20.6 µM (inactive); in test [19], 11.5 µM (inactive); in test [20] it was 15.6 µM (inactive); in test [8], 3.55 µM (inactive); in test [9], 18.5 µM (inactive); in test [10], 36.6 µM (inactive). The GI50 was 25.5 µM (inactive) in test [11]; 14.9 µM (inactive) in [12]; 33 µM (inactive) in test [13]; 72.6 µM (inactive) in [14]; 25.1 µM (inactive) in test [15]; 17 µM (inactive) in test [16]. For the same compound, the GI50 in test [17] was 31 µM (inactive).

As to `CC(C)(C)C(=O)CC1(O)C=C(O)C(O)(CC(=O)C(C)(C)C)O1` (stereo unspecified), the GI50 in test [1] was 86.9 µM (inactive); in test [3], 20.9 µM (inactive); in [4], 66.4 µM (inactive); in test [5], 8.51 µM (inactive); in test [6], 11.6 µM (inactive); in [18] it was 23.6 µM (inactive). The GI50 in test [7] was 29.9 µM (inactive); in test [19] it was 18.7 µM (inactive); in [8], 48.5 µM (inactive); in test [9], 26.5 µM (inactive); in [10] it was 18.3 µM (inactive); in test [11] it was 31.6 µM (inactive). The GI50 was 61.1 µM (inactive) in [12]; > 100 µM (inactive) in [13]; 12.8 µM (inactive) in [14]; 55 µM (inactive) in test [15]; 50.2 µM (inactive) in test [16]; 4.71 µM (inactive) in test [17].

As for `C(=C\Nc1ccc(-c2ccccc2)cc1)/C=N/c1ccc(-c2ccccc2)cc1`, the GI50 in test [2], in test [3], in test [4], in [5], in [6] and in [18] was > 100 µM (inactive) throughout. In addition, the GI50 in test [7], in [19], in test [20], in test [8], in test [9] and in test [10] was > 100 µM (inactive) throughout. In addition, the GI50 was > 100 µM (inactive) in [11]; > 100 µM (inactive) in [12]; > 100 µM (inactive) in test [13]; > 100 µM (inactive) in [14]; 79.8 µM (inactive) in test [15]; > 100 µM (inactive) in [16]. Further, the GI50 in [17] was > 100 µM (inactive).

For `COc1ccc(/N=N/C(=N\c2ccccc2)c2ccc(N(CCC#N)CCC#N)cc2)cc1`, the GI50 in test [2] was > 100 µM (inactive); in [3], 95.3 µM (inactive); in test [4], 47.6 µM (inactive); in test [5], 28.8 µM (inactive); in [6], 97.7 µM (inactive); in test [18] it was 45.3 µM (inactive). For the same compound, the GI50 is > 100 µM (inactive) in test [7]; 47.9 µM (inactive) in test [19]; 38.3 µM (inactive) in test [20]; 31.2 µM (inactive) in test [8]; 51.5 µM (inactive) in test [9]; > 100 µM (inactive) in test [10]. The GI50 in [11] was > 100 µM (inactive); in test [12], 27.4 µM (inactive); in test [13], 33.5 µM (inactive); in [14], 45.3 µM (inactive); in [15], 22.9 µM (inactive); in [16], 76.9 µM (inactive). Further, the GI50 in test [17] was 43.4 µM (inactive).

For the compound `O=C(OCc1ccccc1)N1CCNCCN(C(=O)OCc2ccccc2)CCNCC1`, the GI50 is 32.1 µM (inactive) in [2]; 75.7 µM (inactive) in test [3]; 45.6 µM (inactive) in test [4]; 18 µM (inactive) in test [5]; 55.1 µM (inactive) in test [18]; 49.8 µM (inactive) in [7]. The GI50 is 17.7 µM (inactive) in [19]; 25.6 µM (inactive) in [20]; 23.9 µM (inactive) in test [8]; 27.5 µM (inactive) in test [9]; 36.9 µM (inactive) in test [10]; 19.5 µM (inactive) in [11]. Further, the GI50 in [12] was 28 µM (inactive); in test [13], 0.254 µM (active); in test [14] it was 40.4 µM (inactive); in [15] it was 1.82 µM (inactive); in test [16] it was 95.7 µM (inactive); in test [17], 16.2 µM (inactive).

For `COC(=O)CN(CC1O[C@@H]2OC(C)(C)O[C@@H]2C1NC(C)=O)C(=O)OCc1ccccc1` (stereo partly specified), the GI50 was > 100 µM (inactive) in [2]; > 100 µM (inactive) in test [3]; 59.8 µM (inactive) in test [4]; > 100 µM (inactive) in test [5]; > 100 µM (inactive) in test [6]; > 100 µM (inactive) in test [18]. Besides, the GI50 in [7], in test [19], in test [20], in test [8], in test [9] and in test [10] was > 100 µM (inactive) in each case. Further, the GI50 in test [11], in [12], in [13], in test [14], in test [15] and in test [16] was > 100 µM (inactive) in each case. For the same compound, the GI50 in [17] was > 100 µM (inactive).

Regarding `O=c1[nH]c(=O)n(COCc2ccccc2)c2ccsc12`, the GI50 in test [1], in test [2], in test [3], in test [4], in [5] and in test [6] was > 100 µM (inactive) throughout. Besides, the GI50 in [18] is > 100 µM (inactive); in test [19], > 100 µM (inactive); in [20], 75 µM (inactive); in test [10], > 100 µM (inactive); in test [11] it was > 100 µM (inactive); in test [12], 22.2 µM (inactive). Moreover, the GI50 in test [13], in test [14], in test [15], in test [16] and in test [17] was > 100 µM (inactive) throughout.

For `COc1ccc(C2SCC(=O)N2NC(=O)C(C)Oc2ccc(Cl)cc2Cl)cc1` (stereo unspecified), the GI50 in test [2] was > 100 µM (inactive); in [3] it was 56.6 µM (inactive); in test [4] it was 23.7 µM (inactive); in test [5], 28.3 µM (inactive); in test [6] it was > 100 µM (inactive); in test [18], 31.3 µM (inactive). The GI50 was 49.2 µM (inactive) in test [7]; > 100 µM (inactive) in test [19]; 22 µM (inactive) in test [20]; 36.1 µM (inactive) in test [8]; 33.9 µM (inactive) in test [9]; 16.4 µM (inactive) in test [10]. The GI50 in test [11] is 30.9 µM (inactive); in test [12], 60 µM (inactive); in test [13], 28.4 µM (inactive); in test [14] it was 23.6 µM (inactive); in test [15], 26.7 µM (inactive); in [16], 53 µM (inactive). Moreover, the GI50 in test [17] was 36.6 µM (inactive).
